# Reference: US20240365779A1, “POLLEN PRESERVATION COMPOSITIONS” (PowerPollen, Inc., priority 2017, published 2024)
# Entries after “also recorded” stand apart in the source; their conditions may differ.
# Key:
# [1] = tested on: maize pollen; experiment: Germination assay of stored maize pollen (pollen tube formation); type: cell-based; conditions: equal portion with pollen, 20 hours of storage at 4 degrees Celsius
# Description: Casein and cellulose were both tested separately as possible substances for maintaining or increasing pollen viability. […] Freshly harvested maize pollen was harvested from actively shedding tassels. The pollen was divided into two equal portions, each of which was placed into a 50 ml centrifuge tube. […] Each tube was stored for 24 hours at 4 degrees Celsius. A germination assay was conducted after 24 hours. […] Sonneborn® PD-23 mineral oil was tested as a pollen separation agent. This substance was a liquid at all stages of the described experiment. Freshly harvested pollen from a bulk of maize plants was placed into mineral oil and stored at 4 degree Celsius for a period of 20 hours. After 20 hours, germination media was applied into the oil formulation. The results supported that liquid serves as a proficient storage media for pollen. […] This further supports the concept that separation of pollen grains increases viability.
# [2] = tested on: maize pollen; experiment: Maize pollen viability by Amphasys impedance flow cytometry after storage with a substance; type: cell-based; conditions: 1:1 volume pollen to sugar, 4° C.
# Description: In initial experiments considering different types separation compounds to use for pollen storage, experiments were conducted using activated charcoal as a separator. Field pollen was hand collected from various maize genotypes, and temporarily stored in 50 ml conical tubes, at 5° C. T0 Amphasys was conducted along with pollen moisture content (PMC) determination of the unmixed control pollen. Amphasys provides a reliable determination of pollen viability using an impedance flow cytometer, which measures the electrical properties of pollen grains. Viability at T0 was 97% with a PMC of 57% using the standard overnight oven method. The pollen was mixed with charcoal powder (activated charcoal) at various percentages. Activated charcoal is often used to absorb toxic substances. Mixed samples were then stored at 5° C., in uncapped 50 mL tubes. Timepoint data was collected at days 1 and 6, using Amphasys when the concentration of charcoal would allow. Small quantities of sample were suspended in Ampha 6 media and then filtered with a 150 μm filter to remove any large particles that might affect the fluidics on the Amphasys. […] Used in lower quantities, 2.5-25% in this case, viability remained as high as 92% at 6 days storage.
# In continued efforts to test different substances for the purposes of pollen grain separation, an experiment was conducted with a series of different saccharides to determine efficacy for pollen grain separation and preservation. Mixed pollen was collected from various actively-shedding maize plants grown in the greenhouse. Hand collection was done with a funnel and screen to remove anthers. The bulk pollen sample was divided into four equal portions, each of which was approximately 5 mL in volume. Each sample of pollen was stored in a capped 50 mL conical tube at 5° C. overnight and its viability was tested using Amphasys roughly 24 hours after collection. A 1:1 volume ratio of one of three different types of sugars was added to each tube so that the amount of sugar was equal to the amount of pollen in each tube. […]
# [3] = tested on: wheat pollen; experiment: Wheat pollen viability by Amphasys after anther storage; type: cell-based
# Description: In order to determine whether the method of maintaining pollen separation was effective in other plant species, experiments were conducted with wheat. Wheat heads of Grandin wheat variety were collected at early emergence stage and post-emergence stage. At the post emergence stage, a few anthers were exposed on the wheat heads. The anthers were collected from a subsample of the heads and the collected anthers were ground with a nylon pestle in 1.5 mL of Ampha 6 media, filtered, and run through the Amphasys system to measure T0 viability. Amphasys provides a reliable determination of pollen viability using an impedance flow cytometer, which measures the electrical properties of pollen grains.
# A second subsample of the early emergence stage and post-emergence wheat heads were taken from different regions of each head. These samples were stored whole at 5° C. in cryo vials. The samples in the vials had either no storage medium, lactose particulate storage medium, or lactose (Lab grade D-lactose monohydrate, RPI #L26100-1000.0) combined with 2% Sipernat® 340 storage medium. After storage for either 3 or 14 days, pollen was extracted from the stored anthers using the nylon pestle, and viability was determined using Amphasys.
# [4] = tested on: rice pollen; experiment: Rice pollen viability by Amphasys after anther storage; type: cell-based
# Description: Another experiment was conducted to test the efficacy of maintaining separation of pollen grains in rice. Rice anthers were collected from a pool of cut back glumes. One sample of the anthers was ground with a nylon pestle in 1.5 mL of Ampha 6 media, filtered, and run through the Amphasys system to measure T0 viability. Amphasys provides a reliable determination of pollen viability using an impedance flow cytometer, which measures the electrical properties of pollen grains.
# A second subsample of the anthers was divided into three groups that were stored whole at 5° C. in cryo vials. […]. The samples in the vials had either no storage medium, lactose particulate storage medium, or chemical grade lactose combined with 2% Sipernat® 340 storage medium. After storage for either 4 days or 10 days, pollen was extracted from the stored anthers using the nylon pestle, and viability was determined using Amphasys.
# [5] = Flowability / clumping observation of pollen-substance mixtures; type: physicochemical; conditions: 1:1 pollen to sugar, 4° C.
compound,measurement,setting,value
casein,viability (germination assay),[1],"largely, if not completely unviable; also recorded: little to no viability"
OC[C@H]1O[C@@H](O[C@H]2[C@H](O)[C@@H](O)C(O)O[C@@H]2CO)[C@H](O)[C@@H](O)[C@H]1O (some centres unmarked) [lactose],viability,[2]; Day 8,77%
same,Early Emergence Heads Viability (%),"[3]; Day 3, stored whole at 5° C.",28-41%
same,Post-emergence Heads Viability (%),"[3]; Day 3, stored whole at 5° C.",27-35%
same,Early Emergence Heads Viability (%),"[3]; Day 14, stored whole at 5° C.",39-44%
same,Post-emergence Heads Viability (%),"[3]; Day 14, stored whole at 5° C.",6-17%
same,Pollen Viability (%),"[4]; Day 4, anthers stored whole at 5° C.",57-63%
same,Pollen Viability (%),"[4]; Day 10, anthers stored whole at 5° C.",24-27%
same,flowability of pollen in sample,[5],slightly clumpy
OC[C@H]1O[C@H](O[C@H]2O[C@H](CO)[C@@H](O)[C@H](O)[C@H]2O)[C@H](O)[C@@H](O)[C@@H]1O [trehalose],viability,"[2]; Day 2, compared to the other 3 samples",sharper decline
same,viability,"[2]; after 24 hours of storage, compared to the other samples",slight decline in viability
